According to US7932276B2, “Agent for curing chronic obstructive pulmonary disease” (Otsuka Pharmaceutical Co., Ltd., priority 2001, dated 2011):

Test system: guinea pigs exposed to smoke of cigarette
Experiment: Cigarette smoke exposure guinea pig COPD model, respiratory functions by Double-chamber Plethymograph method
Type: in vivo, Hartley strain guinea pigs
Conditions: 10 mg/kg orally once a day; for Changes in Peak expiration flow / Changes in Specific airway resistance value: change vs value before exposure to cigarette smoke
Description: In accordance with the method of Jun-ichi Fuchikami, et al. (Japanese Journal of Pharmacology, 2000, (82), p. 247), the following pharmacological test was conducted.
Hartley strain guinea pigs (5 weeks age, body weight: 300 to 379.5 g) were exposed to smoke of cigarette (trade name: Hi-Light, manufactured by Japan Tobacco Inc.) for 1 hour/day, 5 days a week, during 4 weeks, by using a flow-past type nose-only inhalation chamber, manufactured by Muenster Co. Control group as a normal group was exposed to the atmospheric air instead of cigarette smoke.
Compound A was suspended in 0.5% tragacanth gum aqueous solution, and this suspension was orally administered compulsorily to the guinea pigs (compound A administered group), in the amount of 10 mg/kg once a day, 1 hour before the exposure to cigarette smoke in the day of exposure, and in the morning in the day of non-exposure, respectively.
To the guinea pigs in the vehicle administered group, a 0.5% tragacanth gum aqueous solution without containing Compound A was orally administered instead of the suspension of compound A.
While, to the guinea pigs in the control group, neither the 0.5% tragacanth aqueous solution nor the compound A suspension were administered.
Before exposure and during the period of 4 weeks of exposure to the smoke of cigarette, the respiratory functions (specific airway resistance and peak expiration flow) of the guinea pigs were non-invasively assessed once a week under conscious condition, using Double-chamber Plethymograph method with a respiratory function measuring equipment (Pulmos-I, manufactured by M.I.P.S. Co.).
The respiratory functions (i.e., values of specific airway resistance and peak expiration flow) were obtained as an average of 100 times measured values of the functions, and were shown as the changes of percentage to the respective value of respiratory function measured before exposure to cigarette smoke.

CCOc1ccc(-c2nc(-c3cccc(C(=O)O)n3)cs2)cc1OCC [Compound A, 6-[2-(3,4-diethoxyphenyl)thiazol-4-yl]pyridine-2-carboxylic acid]
Effect on specific airway resistance and peak expiration flow as compared with vehicle administered group (4 weeks cigarette smoke exposure): excellent improving effects
Changes in Peak expiration flow (1 Week after exposure): 9.67%
Changes in Specific airway resistance value (1 Week after exposure): 12.75%
Changes in Peak expiration flow (2 Week after exposure): 15.67%
Changes in Specific airway resistance value (2 Week after exposure): 41.82%
Changes in Peak expiration flow (3 Week after exposure): 14.08%
Changes in Specific airway resistance value (3 Week after exposure): 61.08%
Changes in Peak expiration flow (4 Week after exposure): 37.06%
Changes in Specific airway resistance value (4 Week after exposure): 51.26%
